Patent USRE39634E1, “Bisarylimidazoly fatty acid amide hydrolase inhibitors” (Bristol-Myers Squibb Company, priority 2001, dated 2007)

Target: T1, human FAAH (Homo sapiens, UniProt O00519)
T1 construct: expressed in transfected cells; host or cells: H4 cells stably transfected with human FAAH (Geneticin selection); crude membrane homogenates
T1 sequence (O00519 1-579): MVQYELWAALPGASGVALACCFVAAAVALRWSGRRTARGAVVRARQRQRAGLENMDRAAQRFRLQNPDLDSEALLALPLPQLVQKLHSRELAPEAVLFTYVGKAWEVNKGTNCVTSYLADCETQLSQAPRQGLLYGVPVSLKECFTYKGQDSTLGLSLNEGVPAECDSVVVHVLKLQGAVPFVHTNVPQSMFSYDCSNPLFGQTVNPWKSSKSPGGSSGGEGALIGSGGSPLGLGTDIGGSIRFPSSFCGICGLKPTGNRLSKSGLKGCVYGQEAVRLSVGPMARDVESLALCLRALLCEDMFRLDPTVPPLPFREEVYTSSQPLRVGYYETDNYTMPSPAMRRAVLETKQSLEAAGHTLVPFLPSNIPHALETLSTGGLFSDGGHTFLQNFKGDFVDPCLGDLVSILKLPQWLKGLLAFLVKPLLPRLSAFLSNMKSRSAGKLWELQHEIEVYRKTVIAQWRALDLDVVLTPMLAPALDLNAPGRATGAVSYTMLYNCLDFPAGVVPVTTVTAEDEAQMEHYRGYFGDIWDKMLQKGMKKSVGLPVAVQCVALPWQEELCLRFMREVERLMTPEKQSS
Test: Determination of FAAH activity (membrane homogenates of H4-FAAH cells, [3H]-anandamide hydrolysis)
Type: biochemical
Conditions: transfected human FAAH, H4-FAAH cell membranes, 10 μM anandamide, room temperature, one hour
Method: Homogenates of crude membranes were prepared from H4 cells that express transfected human FAAH (H4-FAAH cells). Briefly, cells were grown in DMEM supplemented with 10% FBS and Geneticin at a final concentration of 500 μg/ml (Gibco BRL, Rockville, Md.). Confluent cultures of H4-FAAH cells were rinsed twice with phosphate-buffered saline [138 mM NaCl, 4.1 mM KCl, 5.1 mM Na2PO4, 1.5 mM KH2PO4 (pH 7.5), 37° C.] and incubated for 5-10 min. at 4° C. in lysis buffer [1 mM sodium bicarbonate]. Cells were transferred from plates to polypropylene tubes (16×100 mm), homogenized and centrifuged at 32,000×g for 30 min. Pellets were resuspended by homogenization in lysis buffer and centrifuged at 32,000×g for 30 min. Pellets were resuspended in lysis buffer (15-20 μg protein/ml) then stored at −80° C. until needed. On the day of an experiment, membranes were diluted to 2.67 μg protein/ml in 125 mM Tris-Cl, pH 9.0
Activity of FAAH was measured using a modification of the method described by Omeir et al., 1995 (Life Sci 56:1999, 1995). Membrane homogenates (240 ng protein) were incubated at room temperature for one hour with 1.67 nM anandamide [ethanolamine 1-^3H] (American Radiolabeled Chemical Inc., St Louis, Mo.) and 10 μM anandamide (Sigma/RBI, St. Louis, Mo.) in the absence and presence of inhibitors. The reaction was stopped by the addition of 1 volume of a solution of methanol and dichloroethane (1:1). The mixture was shaken and then centrifuged at 1000×g for 15 min. to separate the aqueous and organic phases. An aliquot of the aqueous phase, containing [^3H]-ethanolamine was withdrawn and counted by scintillation spectroscopy. Data were expressed as the percentage of [^3H]-ethanolamine formed versus vehicle, after subtraction of the background radioactivity determined in the presence of 10 μM arachidonyl trifluoromethyl ketone (ATFMK), an inhibitor of FAAH. IC50 values were determined using a four-parameter logistic equation for dose-response curves.

Structure (SMILES)	IC50
COc1ccc(OC(=O)Nc2ccc(OCCCn3c(C)nc(-c4ccccc4)c3-c3ccccc3)cc2)cc1 [Example 56, {4-[3-(2-Methyl-4,5-diphenyl-imidazol-1-yl)-propoxy]-phenyl}-carbamic acid 4-methoxy-phenyl ester]	0.1 to 1 µM
Cc1nc(-c2ccccc2)c(-c2ccccc2)n1CCCCCC(NC(=O)Oc1ccccc1F)c1ccccc1 (stereo not drawn) [Example 74, [6-(2-Methyl-4,5-diphenyl-imidazol-1-yl)-1-phenyl-hexyl]-carbamic acid 2-fluoro-phenyl ester]	0.1 to 1 µM
Cc1ccccc1OC(=O)NCCCCCn1c(C)nc(-c2ccccc2)c1-c1ccccc1 [Example 37, [5-(2-Methyl-4,5-diphenyl-imidazol-1-yl)-pentyl]-carbamic acid o-tolyl ester]	0.1 to 1 µM
Cc1nc(-c2ccccc2)c(-c2ccccc2)n1CCCOc1ccc(NC(=O)Oc2ccccc2F)cc1 [Example 66, {4-[3-(2-Methyl-4,5-diphenyl-imidazol-1-yl)-propoxy]-phenyl}-carbamic acid 2-fluoro-phenyl ester]	1 to 10 µM
CCOC(=O)NCCCCCn1c(C)nc(-c2ccccc2)c1-c1ccccc1 [Example 30, [5-(2-Methyl-4,5-diphenyl-imidazol-1-yl)-pentyl]-carbamic acid ethyl ester]	0.1 to 1 µM
Cc1nc(-c2ccccc2)c(-c2ccccc2)n1CCCCCCNC(=O)Oc1ccc(F)c(F)c1 [Example 41, [6-(2-Methyl-4,5-diphenyl-imidazol-1-yl)-hexyl]-carbamic acid 3,4-difluoro-phenyl ester]	< 0.01 µM
COc1cccc(OC)c1OC(=O)NCCCCCn1c(C)nc(-c2ccccc2)c1-c1ccccc1 [Example 39, [5-(2-Methyl-4,5-diphenyl-imidazol-1-yl)-pentyl]-carbamic acid 2,6-dimethoxy-phenyl ester]	1 to 10 µM
Cc1nc(-c2ccccc2)c(-c2ccccc2)n1CCCCCCNC(=O)O/N=C/c1ccccc1 [Example 46, Benzaldehyde, O-[6-(2-methyl-4,5-diphenyl-1H-imidazol-1-yl)hexylaminocarbonyl]oxime]	0.01 to 0.1 µM
CCOC(=O)Nc1ccc(OCCn2c(C)nc(-c3ccccc3)c2-c2ccccc2)cc1 [Example 70, {4-[2-(2-Methyl-4,5-diphenyl-imidazol-1-yl)-ethoxy]-phenyl}-carbamic acid ethyl ester]	1 to 10 µM
Cc1nc(-c2ccccc2)c(-c2ccccc2)n1CCCCCCNC(=O)Oc1ccc(Cl)cc1 [Example 12, [6-(2-Methyl-4,5-diphenyl-imidazol-1-yl)-hexyl]-carbamic acid 4-chloro-phenyl ester]	< 0.01 µM
Cc1nc(-c2ccccc2)c(-c2ccccc2)n1CCCOc1ccc(NC(=O)Oc2c(F)cccc2F)cc1 [Example 69, {4-[3-(2-Methyl-4,5-diphenyl-imidazol-1-yl)-propoxy]-phenyl}-carbamic acid 2,6-difluoro-phenyl ester]	1 to 10 µM
COc1ccc(OC(=O)NCCCCCn2c(C)nc(-c3ccccc3)c2-c2ccccc2)cc1 [Example 36, [5-(2-Methyl-4,5-diphenyl-imidazol-1-yl)-pentyl]-carbamic acid 4-methoxy-phenyl ester]	0.01 to 0.1 µM
CCC(CCCCCn1c(C)nc(-c2ccccc2)c1-c1ccccc1)NC(=O)Oc1ccccc1F (stereo not drawn) [Example 72, [1-Ethyl-6-(2-methyl-4,5-diphenyl-imidazol-1-yl)-hexyl]-carbamic acid 2-fluoro-phenyl ester]	0.01 to 0.1 µM
Cc1nc(-c2ccccc2)c(-c2ccccc2)n1CCCCCCNC(=O)O/N=C/c1cccc([N+](=O)[O-])c1 [Example 49, 3-Nitrobenzaldehyde, O-[6-(2-methyl-4,5-diphenyl-1H-imidazol-1-yl)hexylaminocarbonyl]oxime]	0.01 to 0.1 µM
COc1ccc(OC(=O)NCCCCCCn2c(C)nc(-c3ccccc3)c2-c2ccccc2)cc1 [Example 13, [6-(2-Methyl-4,5-diphenyl-imidazol-1-yl)-hexyl]-carbamic acid 4-methoxy-phenyl ester]	0.01 to 0.1 µM
Cc1nc(-c2ccccc2)c(-c2ccccc2)n1CCOc1ccc(NC(=O)Oc2ccc(Cl)cc2)cc1 [Example 53, {4-[2-(2-Methyl-4,5-diphenyl-imidazol-1-yl)-ethoxy]-phenyl}-carbamic acid 4-chloro-phenyl ester]	1 to 10 µM
Cc1ccccc1OC(=O)NCCCCCCCn1c(C)nc(-c2ccccc2)c1-c1ccccc1 [Example 26, [7-(2-Methyl-4,5-diphenyl-imidazol-1-yl)-heptyl]-carbamic acid o-tolyl ester]	0.01 to 0.1 µM
Cc1nc(-c2ccccc2)c(-c2ccccc2)n1CCCOc1ccc(NC(=O)Oc2ccccc2)cc1 [Example 63, {4-[3-(2-Methyl-4,5-diphenyl-imidazol1-yl)-propoxy]-phenyl}-carbamic acid phenyl ester]	1 to 10 µM
Cc1nc(-c2ccccc2)c(-c2ccccc2)n1CCCCCCCNC(=O)Oc1ccc(Cl)cc1 [Example 24, [7-(2-Methyl-4,5-diphenyl-imidazol-1-yl)-heptyl]-carbamic acid 4-chloro-phenyl ester]	< 0.01 µM
CCc1nc(-c2ccccc2)c(-c2ccccc2)n1CCCCCCNC(=O)OC(C)CC (stereo not drawn) [Example 3]	1 to 10 µM
COC(=O)NCCCCCCCn1c(C)nc(-c2ccccc2)c1-c1ccccc1 [Example 18, [7-(2-Methyl-4,5-diphenyl-imidazol-1-yl)-heptyl]-carbamic acid methyl ester]	0.1 to 1 µM
Cc1nc(-c2ccccc2)c(-c2ccccc2)n1CCCOc1ccc(NC(=O)Oc2ccc(Cl)cc2)cc1 [Example 57, {4-[3-(2-Methyl-4,5-diphenyl-imidazol-1-yl)-propoxy]-phenyl}-carbamic acid 4-chloro-phenyl ester]	0.1 to 1 µM
Cc1nc(-c2ccccc2)c(-c2ccccc2)n1CCCCCNC(=O)Oc1ccc(Cl)cc1 [Example 35, [5-(2-Methyl-4,5-diphenyl-imidazol-1-yl)-pentyl]-carbamic acid 4-chloro-phenyl ester]	0.01 to 0.1 µM
CCOC(=O)NCCCCCCCn1c(C)nc(-c2ccccc2)c1-c1ccccc1 [Example 19, [7-(2-Methyl-4,5-diphenyl-imidazol-1-yl)-heptyl]-carbamic acid ethyl ester]	0.01 to 0.1 µM
Cc1nc(-c2ccccc2)c(-c2ccccc2)n1CCCCCCCNC(=O)Oc1ccc(F)cc1 [Example 21, [7-(2-Methyl-4,5-diphenyl-imidazol-1-yl)-heptyl]-carbamic acid 4-fluoro-phenyl ester]	0.01 to 0.1 µM
Cc1nc(-c2ccccc2)c(-c2ccccc2)n1CCCCCCCNC(=O)Oc1ccccc1F [Example 22, [7-(2-Methyl-4,5-diphenyl-imidazol-1-yl)-heptyl]-carbamic acid 2-fluoro-phenyl ester]	< 0.01 µM
COc1cccc(OC)c1OC(=O)NCCCCCCCn1c(C)nc(-c2ccccc2)c1-c1ccccc1 [Example 28, [7-(2-Methyl-4,5-diphenyl-imidazol-1-yl)-heptyl]-carbamic acid 2,6-dimethoxy-phenyl ester]	0.1 to 1 µM
COc1ccccc1OC(=O)NCCCCCn1c(C)nc(-c2ccccc2)c1-c1ccccc1 [Example 40, [5-(2-Methyl-4,5-diphenyl-imidazol-1-yl)-pentyl]-carbamic acid 2-methoxy-phenyl ester]	0.1 to 1 µM
Cc1nc(-c2ccccc2)c(-c2ccccc2)n1CCCCCCNC(=O)Oc1ccc(F)cc1F [Example 11, [6-(2-Methyl-4,5-diphenyl-imidazol-1-yl)-hexyl]-carbamic acid 2,4-difluoro-phenyl ester]	< 0.01 µM
Cc1nc(-c2ccccc2)c(-c2ccccc2)n1CCCCCCNC(=O)Oc1ccc(F)cc1 [Example 10, [6-(2-Methyl-4,5-diphenyl-imidazol-1-yl)-hexyl]-carbamic acid 4-fluoro-phenyl ester]	< 0.01 µM
